Experimental data: PubChem BioAssay (NCI)
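Five compound concentrations were applied to cells in 96-well plates for 48 hours; endpoints were derived by simple linear interpolation of the resulting dose-response curve. GI50: concentration for 50% inhibition of growth. TGI: total growth inhibition.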

Assays:
Assay in all cases: inhibition of tumour cell growth, NCI panel, 48 h
HCT-15 colon = test system: HCT-15 colon
EKVX NSCLC = test system: EKVX NSCLC
CCRF-CEM leukemia = test system: CCRF-CEM leukemia
OVCAR-8 ovarian = test system: OVCAR-8 ovarian
K-562 leukemia = test system: K-562 leukemia
SN12C renal = test system: SN12C renal
OVCAR-3 ovarian = test system: OVCAR-3 ovarian
A549 NSCLC = test system: A549 NSCLC
UACC-257 melanoma = test system: UACC-257 melanoma
UO-31 renal = test system: UO-31 renal

Row | SMILES | GI50 (HCT-15 colon) [µM] | TGI (HCT-15 colon) [µM] | GI50 (EKVX NSCLC) [µM] | TGI (EKVX NSCLC) [µM] | GI50 (CCRF-CEM leukemia) [µM] | TGI (CCRF-CEM leukemia) [µM] | GI50 (OVCAR-8 ovarian) [µM] | TGI (OVCAR-8 ovarian) [µM] | GI50 (K-562 leukemia) [µM] | TGI (K-562 leukemia) [µM] | GI50 (SN12C renal) [µM] | TGI (SN12C renal) [µM] | GI50 (OVCAR-3 ovarian) [µM] | TGI (OVCAR-3 ovarian) [µM] | GI50 (A549 NSCLC) [µM] | TGI (A549 NSCLC) [µM] | GI50 (UACC-257 melanoma) [µM] | TGI (UACC-257 melanoma) [µM] | GI50 (UO-31 renal) [µM] | TGI (UO-31 renal) [µM]
1 | CCN(CC)CC(O)COc1c(Br)c(Br)c(Br)c2c1OC(C)(C)C2 (stereo not given) | 4.74 | 14.7 | 3.04 | 9.64 | 1.96 | 4.08 | 11.4 | 36.7 | 1.73 | 3.58 | 6.22 | 19.8 | 3.47 | 16.3 | 3.49 | 13.5 | 2.67 | 4.87 | 5.82 | 26.5
2 | CC(=O)CC(=O)NC=O | – | > 100 | – | > 100 | – | > 100 | – | > 100 | – | > 100 | – | > 100 | – | > 100 | – | > 100 | – | > 100 | – | > 100
3 | COc1cc2c3c(n(CCCN4CCCNCC4)c(=O)c2cc1OC)-c1cc2c(cc1C3=O)OCO2 | 1.09 | 6.74 | 7.6 | 15.5 | 0.0721 | 8.06 | 0.466 | 4.22 | 0.476 | 18.5 | 0.239 | 1.28 | 2.52 | 7.66 | 0.322 | 6.95 | 5.85 | 15.9 | 1.33 | 12.9
4 | O=C(N/C=C/C=C/Sc1ccccc1)OCc1ccccc1 | – | 36.2 | – | 53.6 | – | > 100 | – | 29.5 | – | > 100 | – | 31.6 | – | 32 | – | 59.8 | – | 39.5 | – | 42
5 | NC(=N\N=C/c1ccc(Cl)cc1Cl)/C(N)=N\N=C/c1ccc(Cl)cc1Cl | > 100 | > 100 | 30.7 | > 100 | 36.5 | > 100 | 20.7 | > 100 | 63.1 | > 100 | 30.7 | > 100 | 12.3 | > 73.8 | 5.99 | > 100 | > 100 | > 100 | 13.3 | > 83.6
6 | C=C1C(=O)c2cc3c(cc2C(c2cc(OC)c(OC)c(OC)c2)[C@@H]1C(=O)O)OCO3 (stereo not given in full) | – | > 100 | – | > 100 | – | > 100 | – | > 100 | – | > 100 | – | > 100 | – | 72.8 | – | > 100 | – | > 100 | – | > 100
7 | Fc1ccc(C2SCc3nc4ccccc4n32)cc1F (stereo not given) | – | > 100 | – | > 100 | – | 97 | – | > 100 | – | > 100 | – | > 100 | – | > 100 | – | > 100 | – | > 100 | – | 41
8 | N#Cc1ccc(C(C2C(=O)NC(=O)NC2=O)C2C(=O)NC(=O)NC2=O)cc1 | – | > 100 | – | > 100 | – | > 100 | – | > 100 | – | > 100 | – | > 100 | – | > 100 | – | > 100 | – | > 100 | – | > 100
9 | CCCCN(CCCC)CC(C(=O)Nc1ccc([N+](=O)[O-])cc1[N+](=O)[O-])/C(C)=N\NC(=O)C[N+](C)(C)C (stereo not given) | – | > 100 | – | > 100 | – | > 100 | – | > 100 | – | > 100 | – | > 100 | – | > 100 | – | > 100 | – | > 100 | – | > 100
10 | O=C(O)c1ccc(Oc2nc3ccccc3s2)cc1 | – | > 100 | – | > 100 | – | > 100 | – | > 100 | – | > 100 | – | > 100 | – | > 100 | – | > 100 | – | > 100 | – | > 100
11 | CCc1cccc(CC)c1NC(=O)CC1SC(N)=NC1=O (stereo not given) | – | > 100 | – | > 100 | – | > 100 | – | > 100 | – | > 100 | – | > 100 | – | > 100 | – | > 100 | – | > 100 | – | > 100
12 | O=C(NS(=O)(=O)c1ccc(NC[C@H]2COCCO2)c([N+](=O)[O-])c1)c1ccc(N2CCN(CC3=C(c4ccc(Cl)cc4)CC4(CCC4)CC3)CC2)cc1Oc1cnc2[nH]ccc2c1 | 1.94 | 4.62 | 2.87 | 9.12 | 2.69 | > 100 | 2.18 | 5.06 | 3.04 | > 100 | 1.91 | 3.72 | 1.82 | 3.7 | 3.08 | 14.2 | 2.07 | 4.57 | 1.69 | 3.52
13 | O=C1NC(=O)C2C1C1C=C3c4ccccc4N(c4ccccc4)C32[C@H]2C(=O)NC(=O)[C@@H]12 (stereo not given in full) | – | > 100 | – | > 100 | – | > 100 | – | > 100 | – | > 100 | – | > 100 | – | > 100 | – | > 100 | – | > 100 | – | > 100
14 | CC(=O)OCC1OC([Se-])C(OC(C)=O)C(OC(C)=O)C1OC(C)=O.N#CCC[PH+](CCC#N)CCC#N.[Au+] (stereo not given) | 3.92 | 23.4 | 3.12 | 8.21 | 3.46 | 27.3 | 12.7 | > 93.5 | 3.55 | 28.3 | 6.33 | 31.9 | 7.3 | 49.7 | 9.09 | 42.4 | 5.93 | 13.6 | 8.41 | 42.1
15 | CCCCN(CC)CCCCCCCCCCN1CCCc2cc(OC)ccc21 | 3.3 | 13.6 | 3.57 | 25.4 | 3 | 12.5 | 3.92 | 13.2 | 2.21 | 5.69 | 3.36 | 15.3 | 3.35 | 11.3 | 5.21 | 20.9 | 3.34 | 9.2 | 2.08 | 11.3
16 | COc1ccc(/C=C/C(=O)c2ccc(Nc3nc(Nc4ccc(F)cc4)nc(Nc4ccc(Cl)cc4)n3)cc2)cc1 | 30.8 | > 100 | > 100 | > 100 | 37.4 | > 100 | > 100 | > 100 | 15.4 | > 100 | > 100 | > 100 | > 100 | > 100 | > 100 | > 100 | > 100 | > 100 | 56.9 | > 100
